Data reported in PMC10452266, “Divergent Pharmacology and Biased Signaling of the Four Melanocortin-4 Receptor Isoforms in Rainbow Trout (Oncorhynchus mykiss)” (Biomolecules, 2023).
Entries after “also recorded” stand apart in the source; their conditions may differ.

Experiments:
[1] = test system: omMc4rb1; assay: ERK1/2 phosphorylation assay, omMc4rb1; type: cell-based, rainbow trout (Oncorhynchus mykiss)
Experimental: (§1) Human Embryonic Kidney (HEK) 293T cells, provided by American Type Culture Collection (Manassas, VA, USA), were cultured as described previously. Cells were plated into 24-well or 6-well plates pre-coated with 0.1% gelatin and transfected with plasmids by the calcium phosphate precipitation method.
(§2) HEK293T cells were transfected with omMC4Rs. Twenty-four hours after transfection, cells were washed twice and starved in media without serum for 24 h. […] Rabbit anti-pERK1/2 antibody (Catalog #4370, Cell Signaling, Beverly, MA, USA) and mouse anti-β-tubulin antibody (Developmental Studies Hybridoma Bank, University of Iowa, Iowa City, IA, USA) were used in this study. The bound antibodies were quantified using ImageJ 1.44 software (National Institute of Health, Bethesda, MD, USA).
(§3) Figure 9 ERK1/2 signaling properties of trout Mc4rs. (A) Immunoblots of pERK1/2 in cells expressing omMc4ra1, omMc4ra2, omMc4rb1, or omMc4rb2. HEK293T cells were transiently transfected with omMc4ra1, omMc4ra2, omMc4rb1, omMc4rb2, or empty vector plasmids and were starved overnight 24 h after transfection. […] Western blots were performed as described in Materials and Methods. (B) Densitometry results of basal pERK1/2 levels of omMc4ra1, omMc4ra2, omMc4rb1, and omMc4rb2. (C) Densitometry results of pERK1/2 level of omMc4ra1. (D) Densitometry results of pERK1/2 level of omMc4ra2. (E) Densitometry results of pERK1/2 level of omMc4rb1. (F) Densitometry results of pERK1/2 level of omMc4rb2.

[2] = test system: omMc4ra2; assay: ERK1/2 phosphorylation assay, omMc4ra2; type: cell-based, rainbow trout (Oncorhynchus mykiss); settings: 1 μM α-MSH, 10 nM AgRP, 1 μM MCL0020, 1 μM Ipsen 5i or 1 μM ML00253764, 5 min, HEK293T, Western blot, at least three independent experiments
Experimental: as §1, §2
as §3, with “(E) Densitometry results of pERK1/2 level of omMc4rb1. (F) Densitometry results of pERK1/2 level of omMc4rb2.” left out

[3] = target: T1, hMC4R (Homo sapiens, UniProt P32245); settings: cited from earlier work
T1 construct: expressed in transfected cells; host or cells: HEK293T

[4] = test system: omMc4rb2; assay: ERK1/2 phosphorylation assay, omMc4rb2; type: cell-based, rainbow trout (Oncorhynchus mykiss); settings: 1 μM α-MSH, 10 nM AgRP, 1 μM MCL0020, 1 μM Ipsen 5i or 1 μM ML00253764, 5 min, HEK293T, Western blot, at least three independent experiments
Experimental: as §1, §2
as §3, with “(E) Densitometry results of pERK1/2 level of omMc4rb1. (F) Densitometry results of pERK1/2 level of omMc4rb2.” left out

[5] = test system: omMc4rb2; assay: Effect of antagonists on basal cAMP level, omMc4rb2; type: cell-based, rainbow trout (Oncorhynchus mykiss)
Experimental: (§4) Cells were plated into 24-well or 6-well plates pre-coated with 0.1% gelatin and transfected with plasmids by the calcium phosphate precipitation method.
(§5) Intracellular cAMP levels were determined according to previous protocol.

[6] = test system: omMc4rb1; assay: Effect of antagonists on basal cAMP level, omMc4rb1; type: cell-based, rainbow trout (Oncorhynchus mykiss); settings: 10 nM AgRP, 1 μM MCL0020, 1 μM ML00253764 or 1 μM Ipsen 5i, 1 h, HEK293T, RIA, three independent experiments
Experimental: as §4, §5

[7] = test system: ciMc4r; settings: stated as similar to trout Mc4rs, ref [15],[51]; cited from earlier work
[8] = test system: saMc4r; settings: stated as similar to trout Mc4rs, ref [15],[51]; cited from earlier work
[9] = test system: omMc4ra1; assay: Ligand-binding assay (displacement of 125I-NDP-MSH), omMc4ra1; design: species or system rainbow trout (Oncorhynchus mykiss); settings: AgRP 10^-12 to 10^-7 M, MCL0020 and Ipsen 5i 10^-11 to 10^-6 M, ML00253764 10^-10 to 10^-5 M, transfected HEK293T cells
Experimental: as §1
(§6) A binding assay was conducted as described previously. […].
(§7) Binding assays were used to investigate the binding properties of omMc4rs. […].  Figure 6 Ligand-binding properties of omMc4rs. […]. Data are expressed as % of hMC4R binding ± range from duplicate measurements within one experiment. The curves are representative of at least three independent experiments.

[10] = test system: omMc4ra1; assay: ERK1/2 phosphorylation assay, omMc4ra1; type: cell-based, rainbow trout (Oncorhynchus mykiss); settings: 1 μM α-MSH, 10 nM AgRP, 1 μM MCL0020, 1 μM Ipsen 5i or 1 μM ML00253764, 5 min, HEK293T, Western blot, at least three independent experiments
Experimental: as §1, §2
as §3, with “(E) Densitometry results of pERK1/2 level of omMc4rb1. (F) Densitometry results of pERK1/2 level of omMc4rb2.” left out

[11] = test system: saMc4r; settings: saMc4r (spotted scat); ref [48],[51],[81]; cited from earlier work
Source text: (§8) MC4R-mediated ERK1/2 signaling has a crucial role in the modulation of energy homeostasis. Although teleost Mc4rs have much higher basal activities in Gs-cAMP signaling, constitutive activation of ERK1/2 signaling is only observed in topmouth culter Mc4r but not in saMc4r and ciMc4r. […] Our data documented that these three compounds only activated ERK1/2 signaling of omMc4rb1 but not the other three omMc4rs (Figure 9).

[12] = target: T1, hMC4R; settings: ref [48],[51],[81]; cited from earlier work
Source text: as §8

[13] = test system: ciMc4r; settings: ciMc4r (grass carp); ref [48],[51],[81]; cited from earlier work
Source text: as §8

[14] = test system: saMc4r; settings: stated as similar to omMc4rs, ref [51]; cited from earlier work
Source text: (§9) Numerous constitutively active mutants have been reported in several GPCRs, resulting in various human diseases, and inverse agonism will be vital for correcting the diseases caused by activating mutations in GPCRs. The constitutive activity of teleost Mc4r may have important physiological functions.

[15] = test system: ciMc4r; settings: stated as similar to omMc4rs, ref [51]; cited from earlier work
Source text: as §9

[16] = test system: ricefield eel Mc4r; design: method as in PMID 30075196, PMID 32615281; settings: stated as similar to trout Mc4rs, ref [15],[51]; cited from earlier work
[17] = test system: omMc4rb1; assay: Ligand-binding assay (displacement of 125I-NDP-MSH), omMc4rb1; design: species or system rainbow trout (Oncorhynchus mykiss); settings: AgRP 10^-12 to 10^-7 M, MCL0020 and Ipsen 5i 10^-11 to 10^-6 M, ML00253764 10^-10 to 10^-5 M, transfected HEK293T cells
Experimental: as §1, §6, §7

[18] = test system: omMc4rb2; assay: Ligand-binding assay (displacement of 125I-NDP-MSH), omMc4rb2; design: species or system rainbow trout (Oncorhynchus mykiss); settings: AgRP 10^-12 to 10^-7 M, MCL0020 and Ipsen 5i 10^-11 to 10^-6 M, ML00253764 10^-10 to 10^-5 M, transfected HEK293T cells
Experimental: as §1, §6, §7

[19] = test system: ricefield eel Mc4r; design: method as in PMID 30075196; settings: ref [15]; cited from earlier work
[20] = test system: omMc4ra2; assay: Effect of antagonists on basal cAMP level, omMc4ra2; type: cell-based, rainbow trout (Oncorhynchus mykiss); settings: 10 nM AgRP, 1 μM MCL0020, 1 μM ML00253764 or 1 μM Ipsen 5i, 1 h, HEK293T, RIA, three independent experiments
Experimental: as §4, §5

[21] = target: T1, hMC4R; settings: ref [15],[51]; cited from earlier work
[22] = test system: omMc4ra2; assay: Ligand-binding assay (displacement of 125I-NDP-MSH), omMc4ra2; design: species or system rainbow trout (Oncorhynchus mykiss); settings: AgRP 10^-12 to 10^-7 M, MCL0020 and Ipsen 5i 10^-11 to 10^-6 M, ML00253764 10^-10 to 10^-5 M, transfected HEK293T cells
Experimental: as §1, §6, §7

[23] = test system: omMc4ra1; assay: Effect of antagonists on basal cAMP level, omMc4ra1; type: cell-based, rainbow trout (Oncorhynchus mykiss); settings: 10 nM AgRP, 1 μM MCL0020, 1 μM ML00253764 or 1 μM Ipsen 5i, 1 h, HEK293T, RIA, three independent experiments
Experimental: as §4, §5

[24] = concluded from binding, cAMP and pERK1/2 results

T1 sequence (P32245 whole entry): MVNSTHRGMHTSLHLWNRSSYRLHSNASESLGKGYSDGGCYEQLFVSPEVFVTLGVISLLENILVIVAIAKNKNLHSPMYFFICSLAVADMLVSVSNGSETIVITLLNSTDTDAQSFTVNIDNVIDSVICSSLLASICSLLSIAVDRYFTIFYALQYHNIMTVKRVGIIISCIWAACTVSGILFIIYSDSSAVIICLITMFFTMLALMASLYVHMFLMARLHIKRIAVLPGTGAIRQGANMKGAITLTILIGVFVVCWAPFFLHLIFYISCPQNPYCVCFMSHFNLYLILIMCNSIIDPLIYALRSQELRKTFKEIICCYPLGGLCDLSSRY

## COc1ccc(Br)cc1CCc1c(F)cccc1C1=NCCN1 [ML00253764, 2-[2-[2-(5-bromo-2-methoxyphenyl)-ethyl]-3-fluorophenyl]-4,5-dihydro-1H-imidazol]
[1]; 1 μM α-MSH, 10 nM AgRP, 1 μM MCL0020, 1 μM Ipsen 5i or 1 μM ML00253764, 5 min, HEK293T, Western blot, at least three independent experiments
  effect on ERK1/2 phosphorylation: significantly increased
[1]; [24]
  biased signaling, cAMP versus ERK1/2: biased allosteric modulators for omMc4rb1 with selective activation on ERK1/2 signaling
[2]
  effect on ERK1/2 phosphorylation: no effect
[3]; WT and mutants, ref [48],[51],[57],[58],[80]
  basal activities of WT and constitutively active MC4R mutants: decrease the basal activities
[3]; hMC4R and mutants, ref [1],[28],[48],[51]
  basal activity of hMC4R and constitutively active mutant hMC4Rs: reduced by inverse agonists
[4]
  effect on ERK1/2 phosphorylation: no effect
[5]; 10 nM AgRP, 1 μM MCL0020, 1 μM ML00253764 or 1 μM Ipsen 5i, 1 h, HEK293T, RIA, three independent experiments
  effect on basal cAMP level: acted as an agonist for omMcrb2 and significantly increasing the cAMP levels; also recorded: did not cause significant effects on the cAMP levels; also recorded: could stimulate cAMP signaling
[5]; [24]
  biased signaling, cAMP versus ERK1/2: allosteric agonist for omMc4rb2, preferentially activating Gs-cAMP signaling
[6]
  effect on basal cAMP level: did not cause significant effects on the cAMP levels
[7]
  orthosteric binding by displacing radiolabeled NDP-MSH: neither ML00253764 nor Ipsen 5i bound
[8]
  orthosteric binding by displacing radiolabeled NDP-MSH: neither ML00253764 nor Ipsen 5i bound
[9]
  displacement of 125I-NDP-MSH binding: could not displace
[10]
  effect on ERK1/2 phosphorylation: not by ML00253764, Ipsen 5i, or MCL0020
[11]
  biased signaling, Gs-cAMP versus ERK1/2: preferred activation on ERK1/2 signaling
[12]
  biased signaling, Gs-cAMP versus ERK1/2: preferred activation on ERK1/2 signaling
[13]
  biased signaling, Gs-cAMP versus ERK1/2: preferred activation on ERK1/2 signaling
[14]
  effect on cAMP levels: did not cause significant effects on the cAMP levels
[15]
  effect on cAMP levels: did not cause significant effects on the cAMP levels
[16]
  orthosteric binding by displacing radiolabeled NDP-MSH: neither ML00253764 nor Ipsen 5i bound
[17]
  displacement of 125I-NDP-MSH binding: could not displace
[18]
  displacement of 125I-NDP-MSH binding: could not displace
[19]
  basal cAMP generation: could decrease basal cAMP generation
[20]
  effect on basal cAMP level: did not cause significant effects on the cAMP levels
[21]
  orthosteric binding: bind to hMC4R orthosterically
[22]
  displacement of 125I-NDP-MSH binding: could not displace
[23]
  effect on basal cAMP level: did not cause significant effects on the cAMP levels
